Reference: US9856256B2, “Pyridino[1,2-A]pyrimidone analogue used as P13K inhibitor” (CHIA TAI TIANQING PHARMACEUTICAL GROUP CO., LTD., priority 2014, dated 2018)

Legend:
PI3K (p110α) = PI3K (p110α) (Homo sapiens, UniProt P42336); assay: In vitro enzyme activity assay, PI3K (p110α) kinase, Method II (ADP-Glo assay); assay type: biochemical; parameters: purchased Millipore 14-602-K; conditions: read-out: PI3K (p110α) enzyme activity_IC50
Protocol: PI3K (p110α) kinase activities of the compounds in all the examples of the present invention were tested via the following two methods, respectively.
Dilution of the Compound:
The compound to be tested was diluted with a 3-fold concentration gradient, and 10 concentrations (from 10000 nM to 0.5 nM) were obtained in total.
50 nL of the compound was transferred to a reaction plate (PerkinElmer #6007299) and 3 μL of enzyme/substrate mixture (0.33 nM PI3Kalpha, Millipore #14-602-K/166.5 μM PIP2) was added. After 20 min incubation, 2 uL of ATP solution (100 uM) was added to initiate the reaction. After reacting for 2 hours at room temperature, 5 μL of ADP-Glo reagent was added to terminate the kinase reaction. Then the mixture was incubated at room temperature for 60 min to completely digest the remaining unreacted ATP, 10 uL of kinase detection reagent was added, and after 40 min incubation at room temperature, […] was readed on an Envision. PIP2, ATP, ADP-Glo and the kinase detection reagent were all from ADP-Glo kinase assay kit (Promega #V1792).
IC50 was calculated using standard 4-parameter fit method (Model205, XL-fit, iDBS).

MCF-7 cells = assay: In vitro cell activity assay (MCF-7, insulin stimulation, ELISA-One); assay type: cell-based; conditions: Homo sapiens, MCF7, compound 2 hours in serum-free media, then 10 μg/ml insulin 30 min
Protocol: Experimental Steps and Method Comprise:
1. MCF-7 cells were seeded at 2,5000 cells per well in a 96 well tissue culture plate in a complete media containing 10%0/FBS.
3. The cells were treated with 10 μg/ml insulin in serum-free media for 30 min.
4. During waiting period, lysis solution was prepared as below:
a) Enhancer Solution needs to be taken out from the refrigerator to be thawed.
b) Concentrated lysis solution was prepared by diluting Enhancer Solution 10-fold in 5× Lysis Buffer.
c) Lysis solution was prepared by diluting concentrated lysis solution 5-fold with ddH2O.
5. Any media were removed from wells and the wells were rinsed with PBS once quickly.
6. 50 μL of freshly prepared lysis solution were added into each well, with shaking at room temperature for 10 min.
7. After confirming that all cells get detached from wells, the lysis solution together with the cell debris was transferred to 1.5 ml tubes.
8. The tubes were vortexed several times to thoroughly mix the lysis solution and cells, and then, and then the mixture was centrifuged at 12,000 g for 10 min at 4° C.;
9. The desired number of ELISA-One microplate strips was determined. Unused strips were removed from frame and returned to storage pouch and seal. Wells for use in the assay were rinsed with 200 μL ddH2O to remove preservatives prior to use.
10. 50 μL of antibody mixture solution was added into each well. (Antibody mixture solution was prepared by mixing capture antibody reagent and detection antibody reagent equally, avoid vortexing)
11. 25 μL of lysate was added into each well of the ELISA-One microplate. The microplate was covered with adhesive seal and incubated for 1 hour at room temperature on a microplate shaker.
12. Each well was washed with 150 μL 1× wash buffer 3 times. After final wash, any remaining wash buffer was removed from wells. If necessary, leave microplate in 1× Wash Buffer for up to 30 min, until substrate mixture solution has been prepared.
13. The substrate mixture solution should be prepared when used, 100 μL of substrate mixture solution was added into each well, and then the microplate was sealed with tin foil and incubated at room temperature for 10 minutes on a microplate shaker.
14. 10 μL of stop solution was added into each well, and then mixed slightly (5-10 seconds) on a microplate shaker.
15. Corresponding ELISA-One filter set was installed to read the fluorescence signal intensity.

Chain of PI3K (p110α) (P42336 whole entry): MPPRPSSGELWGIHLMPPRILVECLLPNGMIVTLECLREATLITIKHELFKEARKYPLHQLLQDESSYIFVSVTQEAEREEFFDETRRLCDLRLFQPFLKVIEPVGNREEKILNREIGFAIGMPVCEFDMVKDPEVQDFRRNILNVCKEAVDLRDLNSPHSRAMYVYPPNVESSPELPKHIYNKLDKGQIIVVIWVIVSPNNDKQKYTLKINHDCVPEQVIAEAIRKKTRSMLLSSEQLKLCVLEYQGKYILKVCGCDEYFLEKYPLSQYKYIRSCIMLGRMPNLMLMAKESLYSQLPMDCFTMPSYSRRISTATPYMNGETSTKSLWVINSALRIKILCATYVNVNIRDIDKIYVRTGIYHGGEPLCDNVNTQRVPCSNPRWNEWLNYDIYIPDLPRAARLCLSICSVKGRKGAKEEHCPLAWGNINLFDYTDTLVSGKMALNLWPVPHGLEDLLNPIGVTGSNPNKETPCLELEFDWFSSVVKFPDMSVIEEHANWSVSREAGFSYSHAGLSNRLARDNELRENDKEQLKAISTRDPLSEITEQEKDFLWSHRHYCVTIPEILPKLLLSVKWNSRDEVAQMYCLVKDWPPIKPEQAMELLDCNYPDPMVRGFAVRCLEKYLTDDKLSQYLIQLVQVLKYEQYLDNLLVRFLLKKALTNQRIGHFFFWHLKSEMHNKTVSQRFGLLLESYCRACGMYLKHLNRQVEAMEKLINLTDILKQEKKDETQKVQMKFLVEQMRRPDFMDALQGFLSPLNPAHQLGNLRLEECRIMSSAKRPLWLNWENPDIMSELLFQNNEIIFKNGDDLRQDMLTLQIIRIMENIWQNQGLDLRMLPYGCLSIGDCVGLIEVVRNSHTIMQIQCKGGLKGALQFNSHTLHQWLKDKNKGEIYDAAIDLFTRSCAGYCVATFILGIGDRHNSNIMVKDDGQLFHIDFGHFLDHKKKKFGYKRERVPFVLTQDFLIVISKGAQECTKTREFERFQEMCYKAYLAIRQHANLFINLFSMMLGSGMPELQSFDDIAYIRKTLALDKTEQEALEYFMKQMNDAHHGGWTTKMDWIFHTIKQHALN
Chain of PI3K (p110α) (P27986 whole entry partner): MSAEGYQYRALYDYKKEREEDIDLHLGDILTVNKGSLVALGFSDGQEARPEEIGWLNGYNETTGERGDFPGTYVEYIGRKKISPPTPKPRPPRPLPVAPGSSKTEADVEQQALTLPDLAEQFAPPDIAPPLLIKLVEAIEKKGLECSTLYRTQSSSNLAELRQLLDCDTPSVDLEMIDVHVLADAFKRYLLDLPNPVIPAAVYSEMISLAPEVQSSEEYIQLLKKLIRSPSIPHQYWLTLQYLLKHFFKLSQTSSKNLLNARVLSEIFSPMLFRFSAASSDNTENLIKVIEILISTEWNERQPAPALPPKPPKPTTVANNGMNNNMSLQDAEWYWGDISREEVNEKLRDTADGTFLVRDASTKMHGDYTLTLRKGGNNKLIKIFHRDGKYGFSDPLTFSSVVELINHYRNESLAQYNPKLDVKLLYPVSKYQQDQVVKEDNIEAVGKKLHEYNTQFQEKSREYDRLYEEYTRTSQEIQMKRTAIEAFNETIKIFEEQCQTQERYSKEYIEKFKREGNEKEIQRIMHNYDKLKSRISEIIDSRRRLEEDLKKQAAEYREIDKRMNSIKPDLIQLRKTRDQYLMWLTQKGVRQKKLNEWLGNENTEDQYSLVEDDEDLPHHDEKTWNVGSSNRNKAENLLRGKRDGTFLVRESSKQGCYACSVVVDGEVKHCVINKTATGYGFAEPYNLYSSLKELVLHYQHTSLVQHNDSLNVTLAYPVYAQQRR

SMILES | IC50 (PI3K (p110α)) [nM] | IC50 (MCF-7 cells) [nM]
COc1ncc(-c2ccc3ncc(OCCN4CCN(C)CC4)c(=O)n3c2)cc1NS(=O)(=O)c1sc(C)nc1C [Compound 4] | ≤ 1 | 50 to 100
COc1ncc(-c2ccc3ncc(OCCN4CC5CC4CN5C)c(=O)n3c2)cc1NS(=O)(=O)c1sc(C)nc1C (stereo not shown) [Compound 5] | ≤ 1 | > 250
COc1ncc(-c2ccc3ncc(OCCN4CCCC4=O)c(=O)n3c2)cc1NS(=O)(=O)c1sc(C)nc1C [Compound 21, N-(2-Methoxy-5-(4-oxo-3-(2-(2-oxopyrrolidin-1-yl)ethoxy)-4H-pyrido[1,2-a]pyrimidin-7-yl)pyridin-3-yl)-2,4-dimethylthiazole-5-sulfonamide] | ≤ 1 | ≤ 50
COc1ncc(-c2ccc3ncc(OCCNC(C)=O)c(=O)n3c2)cc1NS(=O)(=O)c1ccc(F)cc1Cl [Compound 22] | ≤ 1 | 100 to 250
COc1ncc(-c2ccc3ncc(OCCNS(C)(=O)=O)c(=O)n3c2)cc1NS(=O)(=O)c1ccc(F)cc1Cl [Compound 23] | ≤ 1 | 50 to 100
COc1ncc(-c2ccc3ncc(OCC4CN(C)C4)c(=O)n3c2)cc1NS(=O)(=O)c1ccc(F)cc1Cl [Compound 28] | – | ≤ 50
COc1ncc(-c2ccc3ncc(OCC4(C)CNC4)c(=O)n3c2)cc1NS(=O)(=O)c1ccc(F)cc1Cl [Compound 29] | – | > 250
COc1ncc(-c2ccc3ncc(OC4CNC4)c(=O)n3c2)cc1NS(=O)(=O)c1ccc(F)cc1Cl [Compound 30] | – | > 250
COc1ncc(-c2ccc3ncc(OCC4CCCN4)c(=O)n3c2)cc1NS(=O)(=O)c1sc(C)nc1C (stereo not shown) [Compound 33] | ≤ 1 | > 250
COc1ncc(-c2ccc3ncc(OCC4CCCN4C)c(=O)n3c2)cc1NS(=O)(=O)c1sc(C)nc1C (stereo not shown) [Compound 34] | ≤ 1 | 50 to 100
COc1ncc(-c2ccc3ncc(OCCn4ccc(C)n4)c(=O)n3c2)cc1NS(=O)(=O)c1ccc(F)cc1F [Compound 38] | 1 to 50 | –
COc1ncc(-c2ccc3ncc(OCCn4ccc(C(F)(F)F)n4)c(=O)n3c2)cc1NS(=O)(=O)c1ccc(F)cc1F [Compound 39] | 1 to 50 | –
COc1ncc(-c2ccc3ncc(OCCn4nccc4C)c(=O)n3c2)cc1NS(=O)(=O)c1ccc(F)cc1F [Compound 40] | 1 to 50 | –
COc1ncc(-c2ccc3ncc(CN4CCOCC4)c(=O)n3c2)cc1NS(=O)(=O)c1sc(C)nc1C [Compound 51, N-(2-Methoxy-5-(3-(morpholinomethyl)-4-oxo-4H-pyrido[1,2-a]pyrimidin-7-yl)pyridin-3-yl)-2,4-dimethylthiazole-5-sulfonamide] | 1 to 50 | –
COc1ncc(-c2ccc3ncc(CN(C)C)c(=O)n3c2)cc1NS(=O)(=O)c1sc(C)nc1C [Compound 52] | 1 to 50 | –
COc1ncc(-c2ccc3ncc(OCCN4CCOCC4)c(=O)n3c2)cc1NC(=O)Nc1sc(C)nc1C [Compound 54] | > 200 | –
COc1ncc(-c2ccc3ncc(OCCN4CCOCC4)c(=O)n3c2)cc1NC(=O)c1sc(C)nc1C [Compound 56, N-(2-Methoxy-5-(3-(2-morpholinoethoxy)-4-oxo-4H-pyrido[1,2-a]pyrimidin-7-yl)pyridin-3-yl)-2,4-dimethylthiazole-5-carboxamide] | > 200 | –
COc1ncc(-c2ccc3ncc(OCCN4CCOCC4)c(=O)n3c2)cc1S(=O)(=O)Nc1sc(C)nc1C [Compound 58, N-(2,4-dimethylthiazol-5-yl)-2-methoxy-5-(3-(2-morpholinoethoxy)-4-oxo-4H-4H-pyrido[1,2-a]pyrimidin-7-yl)pyridine-3-sulfonamide] | > 200 | –
COc1ncc(-c2ccc3ncc(OCCN4CCS(=O)(=O)CC4)c(=O)n3c2)cc1NS(=O)(=O)c1sc(C)nc1C [Compound 61] | ≤ 1 | –
COc1ncc(-c2ccc3ncc(OCCN4CCOCC4)c(=O)n3c2)cc1NS(=O)(=O)c1ccc(F)c(F)c1 [Compound 62] | ≤ 1 | 100 to 250
COc1ncc(-c2ccc3ncc(OCCN4CCOCC4)c(=O)n3c2)cc1NS(=O)(=O)c1c(Cl)cccc1Cl [Compound 63] | ≤ 1 | ≤ 50
COc1ncc(-c2ccc3ncc(OCCN4CCOCC4)c(=O)n3c2)cc1NS(=O)(=O)c1c(F)cc(F)cc1Cl [Compound 64] | ≤ 1 | –
COc1ncc(-c2ccc3ncc(OCCN4CCOCC4=O)c(=O)n3c2)cc1NS(=O)(=O)c1ccc(F)cc1Cl [Compound 65] | ≤ 1 | ≤ 50

SMILES | IC50 (PI3K (p110α)) [nM] | IC50 (MCF-7 cells) [nM]
COc1ncc(-c2ccc3ncc(OCC(C)N4CCOCC4)c(=O)n3c2)cc1NS(=O)(=O)c1ccc(F)cc1Cl (stereo not shown) [Compound 66] | 1 to 50 | ≤ 50
COc1ncc(-c2ccc3ncc(OC(C)CN4CCOCC4)c(=O)n3c2)cc1NS(=O)(=O)c1ccc(F)cc1Cl (stereo not shown) [Compound 67] | 1 to 50 | –
COc1ncc(-c2ccc3ncc(OCCN4CCN(C)CC4)c(=O)n3c2)cc1NS(=O)(=O)c1ccc(F)cc1Cl [Compound 68] | ≤ 1 | ≤ 50
COc1ncc(-c2ccc3ncc(OCCN4CCN(CC(F)(F)F)CC4)c(=O)n3c2)cc1NS(=O)(=O)c1ccc(F)cc1Cl [Compound 69] | – | ≤ 50
COc1ncc(-c2ccc3ncc(OCC(C)(C)N4CCOCC4)c(=O)n3c2)cc1NS(=O)(=O)c1ccc(F)cc1Cl [Compound 70] | 1 to 50 | 100 to 250
COc1ncc(-c2ccc3ncc(OCC4CCN(C)CC4)c(=O)n3c2)cc1NS(=O)(=O)c1ccc(F)cc1Cl [Compound 71] | 1 to 50 | –
COc1ncc(-c2ccc3ncc(OCCCN4CCN(C)CC4)c(=O)n3c2)cc1NS(=O)(=O)c1ccc(F)cc1Cl [Compound 72] | – | ≤ 50
COc1ncc(-c2ccc3ncc(OC4CN(C)C4)c(=O)n3c2)cc1NS(=O)(=O)c1ccc(F)cc1Cl [Compound 73] | 1 to 50 | –
COc1ncc(-c2ccc3ncc(OC4CCN(C)CC4)c(=O)n3c2)cc1NS(=O)(=O)c1ccc(F)cc1Cl [Compound 74] | 1 to 50 | –
COc1ncc(-c2ccc3ncc(OCCN4CCNCC4)c(=O)n3c2)cc1NS(=O)(=O)c1ccc(F)cc1Cl [Compound 75] | ≤ 1 | > 250
COc1ncc(-c2ccc3ncc(OCC4CCNCC4)c(=O)n3c2)cc1NS(=O)(=O)c1ccc(F)cc1Cl [Compound 76] | – | > 250
COc1ncc(-c2ccc3ncc(OCC4CCNC4)c(=O)n3c2)cc1NS(=O)(=O)c1ccc(F)cc1Cl (stereo not shown) [Compound 77] | 1 to 50 | > 250
COc1ncc(-c2ccc3ncc(OCC4CCCN4)c(=O)n3c2)cc1NS(=O)(=O)c1ccc(F)cc1Cl (stereo not shown) [Compound 78] | 1 to 50 | > 250
COc1ncc(-c2ccc3ncc(OCCN(CCO)CCO)c(=O)n3c2)cc1NS(=O)(=O)c1ccc(F)cc1Cl [Compound 80] | ≤ 1 | –
COc1ncc(-c2ccc3ncc(OCC4CC(F)(F)CN4)c(=O)n3c2)cc1NS(=O)(=O)c1ccc(F)cc1Cl (stereo not shown) [Compound 83] | 1 to 50 | –
COc1ncc(-c2ccc3ncc(OCCN(CCO)CC(F)(F)F)c(=O)n3c2)cc1NS(=O)(=O)c1ccc(F)cc1Cl [Compound 84] | 1 to 50 | –
COc1ncc(-c2ccc3ncc(OCCN4CCOCC4C(N)=O)c(=O)n3c2)cc1NS(=O)(=O)c1ccc(F)cc1Cl (stereo not shown) [Compound 86] | ≤ 1 | –
COc1ncc(-c2ccc3ncc(OCCN4C5CCC4COC5)c(=O)n3c2)cc1NS(=O)(=O)c1ccc(F)cc1Cl [Compound 87] | ≤ 1 | –
COc1ncc(-c2ccc3ncc(OCCN4C[C@@H](C)O[C@@H](C)C4)c(=O)n3c2)cc1NS(=O)(=O)c1ccc(F)cc1Cl [Compound 91] | – | ≤ 50
COc1ncc(-c2ccc3ncc(OCCNCC(F)(F)F)c(=O)n3c2)cc1NS(=O)(=O)c1ccc(F)cc1Cl [Compound 92] | ≤ 1 | –
COc1ncc(-c2ccc3ncc(OCCN4CCN(S(C)(=O)=O)CC4)c(=O)n3c2)cc1NS(=O)(=O)c1ccc(F)cc1Cl [Compound 93] | ≤ 1 | –
COc1ncc(-c2ccc3ncc(OCCN4CCNC(=O)C4)c(=O)n3c2)cc1NS(=O)(=O)c1ccc(F)cc1Cl [Compound 94] | – | > 250
